This passage reports IC50 results from patent publication US6420385B1, “Substituted pyrimidinone and pyridone compounds and methods of use” (Amgen Inc., priority 1996, dated 2002).

A value given as a limit tells only on which side of the number the result lay.

The subject of one test is TNF production by monocytes activated with bacterial lipopolysaccharide (LPS). The test can be described thus: Lipopolysaccharide-activated monocyte TNF production assay (LPS induced TNF release). It is filed as cell-based, human. The note with it: Homo sapiens, Monocyte, TNF in supernatant by ELISA. The procedure: Lipopolysaccharide-activated Monocyte TNF Production Assay
Test compounds were evaluated in vitro for the ability to inhibit the production of TNF by monocytes activated with bacterial lipopolysaccharide (LPS). Fresh residual source leukocytes (a byproduct of plateletpheresis) were obtained from a local blood bank, and peripheral blood mononuclear cells (PBMCs) were isolated by density gradient centrifugation on Ficol-Paque Plus (Pharmacia). PBMCs were suspended at 2×10^6/ ml in DMEM supplemented to contain 2% FCS, 10 mM, 0.3 mg/ml glutamate, 100 U/ml penicillin G and […] streptomycin sulfate (complete media). Cells were plated into Falcon flat bottom, 96 well culture plates (200 μl/well) and cultured overnight at 37° C. and 6% CO2. Non-adherent cells were removed by washing with 200 μl/well of fresh medium. Wells containing adherent cells (˜70% monocytes) were replenished with 100 μl of fresh medium.
Preparation of Test Compound Stock Solutions
Test compounds were dissolved in […]. Compound stock solutions were prepared to an initial concentration of […]. Stocks were diluted initially to 20-200 μM in complete media. Nine two-fold serial dilutions of each compound were then prepared in complete medium.
Treatment of Cells with Test Compounds and Activation of TNF Production with Lipopolysaccharide
One hundred microliters of each test compound dilution were added to microtiter wells containing adherent monocytes and 100 μl complete medium. Monocytes were cultured with test compounds for 60 min at which time 25 μl of complete medium containing 30 ng/ml lipopolysaccharide from E. coli K532 were added to each well. Cells were cultured an additional 4 hrs. Culture supernatants were then removed and TNF presence in the supernatants was quantified using an ELISA.
Flat bottom, 96 well Corning High Binding ELISA plates were coated overnight (4° C.) with 150 μL/well of 3 μg/ml murine anti-human TNF-α MAb (R&D Systems #MAB210). Wells were then blocked for 1 hr at room temperature with 200 μL/well of CaCl2-free ELISA buffer supplemented to contain 20 mg/ml BSA (standard ELISA buffer: […], 150 mM NaCl, 2 mM CaCl2, 0.15 mM thimerosal, pH 7.4). Plates were washed and replenished with 100 μl of test supernatants (diluted 1:3) or standards. Standards consisted of eleven 1.5-fold serial dilutions from a stock of 1 ng/ml recombinant human TNF (R&D Systems). Plates were incubated at room temperature for 1 hr on orbital shaker (300 rpm), washed and replenished with 100 μl/well of 0.5 μg/ml goat anti-human TNF-α (R&D systems #AB-210-NA) biotinylated at a 4:1 ratio. Plates were incubated for 40 min, washed and replenished with 100 μl/well of alkaline phosphatase-conjugated streptavidin (Jackson ImmunoResearch #016-050-084) at 0.02 μg/ml. Plates were incubated 30 min, washed and replenished with 200 μl/well of 1 mg/ml of p-nitrophenyl phosphate. After 30 min, plates were read at […] on a Vmax plate reader.
Standard curve data were fit to a second order polynomial and unknown TNF-α concentrations determined from their OD by solving this equation for concentration. TNF concentrations were then plotted vs. test compound concentration using a second order polynomial. This equation was then used to calculate the concentration of test compounds causing a 50% reduction in TNF production.
On the technique in general: In an ELISA, binding on a coated surface is turned into a signal by an enzyme label.
Usually IC50 stands for the concentration that gives 50% inhibition. `Cc1ccc(-c2cc(-c3ccncc3)c(-c3ccccc3)c(=O)[nH]2)cc1` [6-(4-Methylphenyl)-3-phenyl-4-(4-pyridyl)-2(1H)-pyridone]: the IC50 is at most 20 µM. The same measure, in the same setting: the figure for `O=c1[nH]c(-c2cccs2)cc(-c2ccncc2)c1-c1ccccc1` [3-Phenyl-4-(4-pyridyl)-6-(2-thienyl)-2(1H)-pyridone] is at most 20 µM; for `Cc1ccc(-c2cc(-c3ccncc3)c(-c3ccccc3)c(=O)[nH]2)c(C)c1` [6-(2,4-Dimethylphenyl)-3-phenyl-4-(4-pyridyl)-2(1H)-pyridone] it is at most 20 µM.

For the compound `O=c1[nH]c(-c2ccco2)cc(-c2ccncc2)c1-c1ccccc1` [6-(2-Furyl)-3-phenyl-4-(4-pyridyl)-2(1H)-pyridone], the IC50 is at most 20 µM. Still for that read-out and setting: the figure for `O=c1[nH]c(-c2ccccc2)cc(-c2ccncc2)c1-c1ccccc1` [3,6-Diphenyl-4-(4-pyridyl)-2(1H)-pyridone] is at most 20 µM.

Still in this test, the particulars now being: TNF in supernatant by ELISA.
Compound `Cc1ccccc1C(N)CCNc1nc(-c2ccncc2)c(-c2cccc(C(F)(F)F)c2)c(=O)n1C` (stereo not shown) [2-((3-Amino-3-(2-methylphenyl)propyl)-amino)-3-methyl-6-(4-pyridyl)5-(3-trifluoromethylphenyl)-4-(3H)-pyrimidinone] yielded an IC50 of at most 5 µM. Still for that read-out and setting: the figure for `Cn1c(NCCC(N)c2ccccc2)nc(-c2ccncc2)c(-c2cccc(C(F)(F)F)c2)c1=O` (stereo not shown) [2-((3-Amino-3-phenylpropyl)-amino)-3-methyl-6-(4-pyridyl)5-(3-trifluoromethylphenyl)-4-(3H)-pyrimidinone] is at most 5 µM.
